Values quoted from earlier work, collected in PubChem BioAssay AID1259409 (Chemical Carcinogenesis Research Information System (CCRIS), 2018).

Tested on: rodent chemically induced tumor inhibition, incidence and multiplicity
Experiment: CCRIS tumor inhibitor studies

Compound: CC(=O)Oc1ccccc1C(=O)O
- tumour outcome (control, treated, inhibition, significance) (Carcinogen: AZOXYMETHANE, 25843-45-2, Dose [Inhibitor]: 0, 250 PPM IN DIET FOR 34 WK BEGINNING 1 WK POST LAST CARCINOGEN DOSE (STUDY DURATION: 49 WK), Route [Inhibitor]: ORAL, Species: RAT, Strain/Sex: F344/MALE, Target Tissue: Type of Lesion: COLON: ADENOCARCINOMA, Dose [Carcinogen]: 12 MG/KG BW IN 0.9% SALINE TWICE, Promoter: CHOLIC ACID, 81-25-4): 26%, 19%, 27%, not significant
- tumour outcome (control, treated, inhibition, significance) (Carcinogen: AZOXYMETHANE, 25843-45-2, Dose [Inhibitor]: 0, 250 PPM IN DIET FOR 34 WK BEGINNING 1 WK POST LAST CARCINOGEN DOSE (STUDY DURATION: 49 WK), Route [Inhibitor]: ORAL, Species: RAT, Strain/Sex: F344/MALE, Target Tissue: Type of Lesion: COLON: ADENOMA, Dose [Carcinogen]: 12 MG/KG BW IN 0.9% SALINE TWICE, Promoter: CHOLIC ACID, 81-25-4): 81%, 77%, 5%, not significant
- tumour outcome (control, treated, inhibition, significance) (Carcinogen: AZOXYMETHANE, 25843-45-2, Dose [Inhibitor]: 0, 250 PPM IN DIET FOR 34 WK BEGINNING 1 WK POST LAST CARCINOGEN DOSE (STUDY DURATION: 49 WK), Route [Inhibitor]: ORAL, Species: RAT, Strain/Sex: F344/MALE, Target Tissue: Type of Lesion: SMALL INTESTINE: ADENOCARCINOMA, Dose [Carcinogen]: 12 MG/KG BW IN 0.9% SALINE TWICE, Promoter: CHOLIC ACID, 81-25-4): 23%, 23%, 0%, not significant
- tumour outcome (control, treated, inhibition, significance) (Carcinogen: AZOXYMETHANE, 25843-45-2, Dose [Inhibitor]: 0, 250 PPM IN DIET FOR 34 WK BEGINNING 1 WK POST LAST CARCINOGEN DOSE (STUDY DURATION: 49 WK), Route [Inhibitor]: ORAL, Species: RAT, Strain/Sex: F344/MALE, Target Tissue: Type of Lesion: SMALL INTESTINE: ADENOMA, Dose [Carcinogen]: 12 MG/KG BW IN 0.9% SALINE TWICE, Promoter: CHOLIC ACID, 81-25-4): 17%, 23%, -35%, not significant
- tumour outcome (control, treated, inhibition, significance) (Carcinogen: AZOXYMETHANE, 25843-45-2, Dose [Inhibitor]: 0, 400 PPM IN DIET BEGINNING 2 WK PRIOR TO CARCINOGEN TREATMENT AND CONTINUING FOR 52 WK (STUDY DURATION: 54 WK), Route [Inhibitor]: ORAL, Species: RAT, Strain/Sex: F344/MALE, Target Tissue: Type of Lesion: COLON: ADENOCARCINOMA, Dose [Carcinogen]: 15 MG/KG BW 1/WK FOR 2 WK, Promoter: NONE USED): 78%, 47%, 40%, p<0.01
- tumour outcome (control, treated, inhibition, significance) (Carcinogen: DIMETHYLHYDRAZINE HYDROCHLORIDE, 306-37-6, Dose [Inhibitor]: 0, 5 MG/KG 1/D 5D/WK BY GAVAGE AND SAME DOSE IN DIET 2 D/WK FOR 18 WK (STUDY DURATION: 18 WK), Route [Inhibitor]: GAVAGE, ORAL, Species: RAT, Strain/Sex: WISTAR/MALE, Target Tissue: Type of Lesion: COLON: TUMOR, Dose [Carcinogen]: 30 MG/KG/WK FOR 18 WK, Promoter: NONE USED): 100%, 100%, 0%, not significant
- tumour outcome (control, treated, inhibition, significance) (Carcinogen: DIMETHYLHYDRAZINE HYDROCHLORIDE, 306-37-6, Dose [Inhibitor]: 0, 30 MG/KG 1/D 5 D/WK BY GAVAGE AND THE SAME DOSE IN DIET 2 D/WK FOR 18 WK (STUDY DURATION: 18 WK), Route [Inhibitor]: GAVAGE, ORAL, Species: RAT, Strain/Sex: WISTAR/MALE, Target Tissue: Type of Lesion: COLON: TUMOR, Dose [Carcinogen]: 30 MG/KG/WK FOR 18 WK, Promoter: NONE USED): 100%, 50%, 50%, p<0.03
- tumour outcome (control, treated, inhibition, significance) (Carcinogen: DIMETHYLHYDRAZINE HYDROCHLORIDE, 306-37-6, Dose [Inhibitor]: 0, 60 MG/KG 1/D 5 D/WK BY GAVAGE AND THE SAME DOSE IN DIET 2 D/WK FOR 18 WK (STUDY DURATION: 18 WK), Route [Inhibitor]: GAVAGE, ORAL, Species: RAT, Strain/Sex: WISTAR/MALE, Target Tissue: Type of Lesion: COLON: TUMOR, Dose [Carcinogen]: 30 MG/KG/WK FOR 18 WK, Promoter: NONE USED): 100%, 25%, 75%, p<0.01
- tumour outcome (control, treated, inhibition, significance) (Carcinogen: N-BUTYL-(4-HYDROXYBUTYL)NITROSAMINE, 3817-11-6, Dose [Inhibitor]: 0, 1 G/KG IN DIET FROM WK 1 THROUGH WK 20 OF STUDY, Route [Inhibitor]: ORAL, Species: RAT, Strain/Sex: WISTAR/MALE, Target Tissue: Type of Lesion: BLADDER: TUMOR, Dose [Carcinogen]: 0.05% IN DRINKING WATER FROM WK 2 THROUGH WK 10 OF STUDY (STUDY DURATION: 32 WK), Promoter: NONE USED): 8/29 (28%), 1/29 (3%), 89%, p<0.05
- tumour outcome (control, treated, inhibition, significance) (Carcinogen: N-BUTYL-N-(4-HYDROXYBUTYL)NITROSAMINE, 3817-11-6, Dose [Inhibitor]: 0, 400 MG/KG DIET FOR 24 WK BEGINNING 1 WK PRIOR TO CARCINOGEN TREATMENT (STUDY DURATION: 24 WK), Route [Inhibitor]: ORAL, Species: MOUSE, Strain/Sex: BDF/MALE, Target Tissue: Type of Lesion: URINARY BLADDER: TRANSITIONAL CELL CARCINOMA, Dose [Carcinogen]: 7.5 MG 1/WK FOR 8 WK, Promoter: NONE USED): 22/75 (29%), 21/74 (28%), 3%, not significant
- tumour outcome (control, treated, inhibition, significance) (Carcinogen: N-BUTYL-N-(4-HYDROXYBUTYL)NITROSAMINE, 3817-11-6, Dose [Inhibitor]: 0, 800 MG/KG DIET FOR 24 WK BEGINNING 1 WK PRIOR TO CARCINOGEN TREATMENT (STUDY DURATION: 24 WK), Route [Inhibitor]: ORAL, Species: MOUSE, Strain/Sex: BDF/MALE, Target Tissue: Type of Lesion: URINARY BLADDER: TRANSITIONAL CELL CARCINOMA, Dose [Carcinogen]: 7.5 MG 1/WK FOR 8 WK, Promoter: NONE USED): 22/75 (29%), 22/73 (30%), -3%, not significant
- tumour outcome (control, treated, inhibition, significance) (Carcinogen: N-METHYL-N'-NITRO-N-NITROSOGUANIDINE, 70-25-7, Dose [Inhibitor]: FOLLOWING 8 WK CARCINOGEN/NACL REGIMEN, RATS FED DIETS SUPPLEMENTED WITH 1% ASPIRIN FOR 32 WK (STUDY DURATION: 40 WK), Route [Inhibitor]: ORAL, Species: RAT, Strain/Sex: WISTAR/MALE, Target Tissue: Type of Lesion: DUODENUM: ADENOCARCINOMA, Dose [Carcinogen]: 100 MG/L IN DRINKING WATER FOR 8 WK, AND SIMULTANEOUSLY FED DIET SUPPLEMENTED WITH 10% NACL, Promoter: SODIUM CHLORIDE, 7647-14-5): 3/39 (8%), 1/20 (5%), 38%, not significant
- tumour outcome (control, treated, inhibition, significance) (Carcinogen: N-METHYL-N'-NITRO-N-NITROSOGUANIDINE, 70-25-7, Dose [Inhibitor]: FOLLOWING 8 WK CARCINOGEN/NACL REGIMEN, RATS FED DIETS SUPPLEMENTED WITH 1% ASPIRIN FOR 32 WK (STUDY DURATION: 40 WK), Route [Inhibitor]: ORAL, Species: RAT, Strain/Sex: WISTAR/MALE, Target Tissue: Type of Lesion: GLANDULAR STOMACH: ADENOCARCINOMA, Dose [Carcinogen]: 100 MG/L IN DRINKING WATER FOR 8 WK, AND SIMULTANEOUSLY FED DIET SUPPLEMENTED WITH 10% NACL, Promoter: SODIUM CHLORIDE, 7647-14-5): 3/39 (8%), 0/20 (0%), 100% not significant
- tumour outcome (control, treated, inhibition, significance) (Carcinogen: N-METHYL-N'-NITRO-N-NITROSOGUANIDINE, 70-25-7, Dose [Inhibitor]: FOLLOWING 8 WK CARCINOGEN/NACL REGIMEN, RATS FED DIETS SUPPLEMENTED WITH 1% ASPIRIN FOR 32 WK (STUDY DURATION: 40 WK), Route [Inhibitor]: ORAL, Species: RAT, Strain/Sex: WISTAR/MALE, Target Tissue: Type of Lesion: GLANDULAR STOMACH: PRENEOPLASTIC HYPERPLASIA, Dose [Carcinogen]: 100 MG/L IN DRINKING WATER FOR 8 WK, AND SIMULTANEOUSLY FED DIET SUPPLEMENTED WITH 10% NACL, Promoter: SODIUM CHLORIDE, 7647-14-5): 5/39 (13%), 2/20 (10%), 23%, not significant
- tumour outcome (control, treated, inhibition, significance) (Carcinogen: N-NITROSOBIS(2-OXOPROPYL)AMINE, 60599-38-4, Dose [Inhibitor]: 0, 1% IN DIET FOR 27 WK BEGINNING POST LAST CARCINOGEN DOSE (STUDY DURATION: 32 WK), Route [Inhibitor]: ORAL, Species: HAMSTER, Strain/Sex: SYRIAN/FEMALE, Target Tissue: Type of Lesion: PANCREAS: ADENOCARCINOMA, Dose [Carcinogen]: 10 MG/KG 1/WK FOR 5 WK, Promoter: NONE USED): 20/28 (71%), 10/19 (53%), 25%, not calculated
- tumour outcome (control, treated, inhibition, significance) (Carcinogen: N-NITROSODIETHYLAMINE, 55-18-5, 2-ACETYLAMINOFLUORENE, 53-93-6, CARBON TETRACHLORIDE, 56-23-5, Carcinogen: N-NITROSODIETHYLAMINE, 55-18-5, 2-ACETYLAMINOFLUORENE, 53-93-6, CARBON TETRACHLORIDE, 56-23-5, Dose [Inhibitor]: 0, 0.75% IN DIET FOR 29 WK ADMINISTERED TO RATS BEARING PERSISTENT NODULES FOLLOWING CARCINOGEN TREATMENT (STUDY DURATIO, Route [Inhibitor]: ORAL, Species: RAT, Strain/Sex: F344/MALE, Target Tissue: Type of Lesion: LIVER: HEPATOCELLULAR CARCINOMA, Dose [Carcinogen]: 200 MG/KG BW DEN ONCE, 0.002% 2-AAF IN DIET FOR 2 WK, 1 MG/KG BW CCL4 MIDWAY IN 2-AAF TREATMENT, Dose [Carcinogen]: 200 MG/KG BW DEN ONCE, 0.002% 2-AAF IN DIET FOR 2 WK, 1 MG/KG BW CCL4 MIDWAY IN 2-AAF TREATMENT, Promoter: NONE USED): 7/8 (88%), 5/13 (38%), 57%, not significant
- tumour outcome (control, treated, inhibition, significance) (Carcinogen: N-NITROSODIETHYLAMINE, 55-18-5, 2-ACETYLAMINOFLUORENE, 53-93-6, CARBON TETRACHLORIDE, 56-23-5, Carcinogen: N-NITROSODIETHYLAMINE, 55-18-5, 2-ACETYLAMINOFLUORENE, 53-93-6, CARBON TETRACHLORIDE, 56-23-5, Dose [Inhibitor]: 0, 0.75% IN DIET FOR 29 WK ADMINISTERED TO RATS BEARING PERSISTENT NODULES FOLLOWING CARCINOGEN TREATMENT (STUDY DURATIO, Route [Inhibitor]: ORAL, Species: RAT, Strain/Sex: F344/MALE, Target Tissue: Type of Lesion: LIVER: HEPATOCELLULAR CARCINOMA, Dose [Carcinogen]: 200 MG/KG BW DEN ONCE, 0.002% 2-AAF IN DIET FOR 2 WK, 1 ML/KG BW CCL4 MIDWAY IN 2-AAF TREATMENT, Dose [Carcinogen]: 200 MG/KG BW DEN ONCE, 0.002% 2-AAF IN DIET FOR 2 WK, 1 ML/KG BW CCL4 MIDWAY IN 2-AAF TREATMENT, Promoter: PHENOBARBITAL, 50-06-6): 12/12 (100%), 12/14 (86%), 14%, not significant
- tumour outcome (control, treated, inhibition, significance) (Carcinogen: N-[4-(5-NITRO-2-FURYL)-2-THIAZOLYL]FORMAMIDE, 24554-26-5, Dose [Inhibitor]: 0.5% IN DIET FOR 2 D PRIOR TO AND FOR 7 D AFTER CARCINOGEN ADMINISTRATION (13 WK TOTAL) FOLLOWED BY 56 WK ON CONTROL DIE, Route [Inhibitor]: ORAL, Species: RAT, Strain/Sex: FISCHER/MALE, Target Tissue: Type of Lesion: URINARY BLADDER: CARCINOMA, Dose [Carcinogen]: 0.2% IN DIET SIMULTANEOUSLY WITH INHIBITOR FOR 12 WK, Promoter: NONE USED): 18/21 (86%), 10/27 (37%), 57%, p<0.001
